# Where no end group is shown, it is not given here.
# System: human red blood cells
# Type: cell-based
# Settings: red cells of human, 24 h
# Experimental: Tissue expression of devil cathelicidin prepropeptides was determined by real-time PCR on a range of secretory, immune, reproductive, gastrointestinal and respiratory tissues, as well as BLAST searches of the milk transcriptome. Opportunistic tissue samples for real-time PCR were collected from Taronga Zoo (Sydney) from devils which were subject to euthanasia due to old age and advanced disease. […] Ltd. and their antimicrobial activity against bacterial and fungal pathogens determined by broth microdilution susceptibility assay according to clinical laboratory standards institute guidelines. Antimicrobial activity was expressed as minimum inhibitory concentration (MIC). Cytotoxicity was assessed in the human cell line A549 and haemolytic activity determined against human blood. Statistical significance of peptide effect on cell survival in comparison to the untreated control was calculated using a one sample t-test. Pouch microbiome analysis was performed on swabs from the pouch of lactating and non-lactating devils to detect changes in microbe populations. Pouch swab collection was carried out in accordance with the Save the Tasmanian Devil Program and was approved by the Animal Ethics Committee of the University of Sydney (permit number 681). page 3: […] Two antibiotics, ampicillin and tetracycline, were included as a positive control for bacteria, and the […] A well containing cells and media only was used as a “no drug” control to ensure that cultures grew normally. Bacteria were subcultured on Mueller Hinton agar (MHA) or Sheep blood agar (BA) for 24 hours at 35 °C for Staphylococcus spp., Pseudomonas spp., Enterococcus spp. and E.coli, with 5% CO2 for Streptococcus spp., K.pneumoniae, P.multocida, […] Similarly, fungi were subcultured on Sabouraud agar (SAB) at 35 °C for 24 hours prior to the test. Colonies were resuspended in saline and the OD530 measured with a McFarland reader. If necessary the suspension was diluted to 0.45-0.55 McFarland units with saline. […] Assays Antimicrobial activity was expressed as minimum inhibitory concentration (MIC), which was defined as the lowest concentration of cathelicidin preventing visible growth, relative to the negative control. Colonies which grew on agar plates were also counted. Cytotoxicity Cytotoxicity was assessed in the human A549 cell line maintained in Dulbecco’s Modification of Eagle’s Medium (DMEM) supplemented with 10% foetal bovine serum (FBS), 2mM L -glutamine, 50units/mL penicillin and 50μg/mL streptomycin. […] Following incubation for a further 24 hours, cell viability was determined using alamar blue (Invitrogen) which was added to each well. […]
sequence,measurement,value
KRMGIFHLFWAGLRKLGNLIKNKIQQGIENFLG [Saha-CATH3],haemolysis compared with the positive control,below 7%

# — PMC5057115, “Cathelicidins in the Tasmanian devil (Sarcophilus harrisii)” (Scientific Reports, 2016)
